# In patent US20250154141A1 (University of Florida Research Foundation, Incorporated, priority 2021, published 2025):
# Where two headings read alike, the source gives them in different places.
# Legend:
# MOLT-4 = experiment: Cell viability assay (MTS) in MOLT-4 cells; type: cell-based; conditions: Homo sapiens, MOLT-4
# Procedure: (§1) Acute lymphoblastic leukemia cells (MOLT-4 and RS4; 11) were incubated with increasing concentrations of Bcl-xL degraders for 48 h. Cell viability was measured by tetrazolium-based MTS assay.
# RS4; 11 = experiment: Cell viability assay (MTS) in RS4; 11 cells; type: cell-based; conditions: Homo sapiens, RS4-11
# Procedure: as §1
# [1] = Table 2, 48 hr, MTS, read-out: Anti-Cancer Activity IC50 (48 hr) MOLT-4
# [2] = Table 2, 48 hr, MTS, read-out: Anti-Cancer Activity IC50 (48 hr) RS4, 11
# [3] = Table 5, 48 h, read-out: MOLT-4 48 h IC50
# [4] = Table 5, 48 h, read-out: RS4 48 h IC50
Structure (SMILES),IC50 (MOLT-4; [1]) [nM],IC50 (RS4; 11; [2]) [nM],IC50 (MOLT-4; [3]) [nM],IC50 (RS4; 11; [4]) [nM]
Cc1ncsc1-c1ccc([C@H](C)NC(=O)[C@@H]2C[C@@H](O)CN2C(=O)[C@@H](NC(=O)CN2CCN(CC(=O)N3CCN(CC4(C)CCC(c5ccc(Cl)cc5)=C(CN5CCN(c6ccc(C(=O)NS(=O)(=O)c7ccc(N[C@H](CCN8CCOCC8)CSc8ccccc8)c(S(=O)(=O)C(F)(F)F)c7)cc6)CC5)C4)CC3)CC2)C(C)(C)C)cc1 (some centres unmarked) [Compound 25],< 20,< 20,,
"Cc1ncsc1-c1ccc([C@H](C)NC(=O)[C@@H]2C[C@@H](O)CN2C(=O)[C@@H](NC(=O)CCCCCCC(=O)N2CCN(CC3(C)CCC(c4ccc(Cl)cc4)=C(CN4CCN(c5ccc(C(=O)NS(=O)(=O)c6ccc(N[C@H](CCO)CSc7ccccc7)c([N+](=O)[O-])c6)cc5)CC4)C3)CC2)C(C)(C)C)cc1 (stereo partly drawn) [Compound 49, (2S,4R)-1-((2S)-2-(8-(4-((4′-chloro-6-((4-(4-(((4-(((R)-4-hydroxy-1-(phenylthio)butan-2-yl)amino)-3-nitrophenyl)sulfonyl)carbamoyl)phenyl)piperazin-1-yl)methyl)-4-methyl-2,3,4,5-tetrahydro-[1,1′-biphenyl]-4-yl)methyl)piperazin-1-yl)-8-oxooctanamido)-3,3-dimethylbutanoyl)-4-hydroxy-N—((S)-1-(4-(4-methylthiazol-5-yl)phenyl)ethyl)pyrrolidine-2-carboxamide]",500 to 10000,20 to 100,,
"Cc1ncsc1-c1ccc([C@H](C)NC(=O)[C@@H]2C[C@@H](O)CN2C(=O)[C@@H](NC(=O)CCCCCCC(=O)N2CCN(C[C@]3(C)CCC(c4ccc(Cl)cc4)=C(CN4CCN(c5ccc(C(=O)NS(=O)(=O)c6ccc(N[C@H](CCN7CCOC(C)C7)CSc7ccccc7)c(S(=O)(=O)C(F)(F)F)c6)cc5)CC4)C3)CC2)C(C)(C)C)cc1 (stereo partly drawn) [Compound 91, (2S,4R)-1-((2S)-2-(8-(4-(((4R)-4′-chloro-4-methyl-6-((4-(4-(((4-(((2R)-4-(2-methylmorpholino)-1-(phenylthio)butan-2-yl)amino)-3-((trifluoromethyl)sulfonyl)phenyl)sulfonyl)carbamoyl)phenyl)piperazin-1-yl)methyl)-2,3,4,5-tetrahydro-[1,1′-biphenyl]-4-yl)methyl)piperazin-1-yl)-8-oxooctanamido)-3,3-dimethylbutanoyl)-4-hydroxy-N—((S)-1-(4-(4-methylthiazol-5-yl)phenyl)ethyl)pyrrolidine-2-carboxamide]",< 20,< 20,,
Cc1ncsc1-c1ccc([C@H](C)NC(=O)[C@@H]2C[C@@H](O)CN2C(=O)[C@@H](NC(=O)CCCNC(=O)c2ccc(N3CCN(CC4(C)CCC(c5ccc(Cl)cc5)=C(CN5CCN(c6ccc(C(=O)NS(=O)(=O)c7ccc(N[C@H](CCN8CCOCC8)CSc8ccccc8)c(S(=O)(=O)C(F)(F)F)c7)cc6)CC5)C4)CC3)cn2)C(C)(C)C)cc1 (some centres unmarked) [Compound 4],20 to 100,20 to 100,,
"Cc1ncsc1-c1ccc([C@H](C)NC(=O)[C@@H]2C[C@@H](O)CN2C(=O)[C@@H](NC(=O)COCCOCc2cn(CC3(C)CCC(c4ccc(Cl)cc4)=C(CN4CCN(c5ccc(C(=O)NS(=O)(=O)c6ccc(N[C@H](CCN7CCOCC7)CSc7ccccc7)c(S(=O)(=O)C(F)(F)F)c6)cc5)CC4)C3)nn2)C(C)(C)C)cc1 (stereo partly drawn) [Compound 21, (2S,4R)-1-((2S)-2-(2-(2-((1-((4′-chloro-4-methyl-6-((4-(4-(((4-(((R)-4-morpholino-1-(phenylthio)butan-2-yl)amino)-3-((trifluoromethyl)sulfonyl)phenyl)sulfonyl)carbamoyl)phenyl)piperazin-1-yl)methyl)-2,3,4,5-tetrahydro-[1,1′-biphenyl]-4-yl)methyl)-1H-1,2,3-triazol-4-yl)methoxy)ethoxy)acetamido)-3,3-dimethylbutanoyl)-4-hydroxy-N—((S)-1-(4-(4-methylthiazol-5-yl)phenyl)ethyl)pyrrolidine-2-carboxamide]",100 to 500,20 to 100,,
"Cc1ncsc1-c1ccc([C@H](C)NC(=O)[C@@H]2C[C@@H](O)CN2C(=O)[C@@H](NC(=O)CCCCCCC(=O)N2CCN(CC3(C)CCC(c4ccc(Cl)cc4)=C(CN4CCN(c5ccc(C(=O)NS(=O)(=O)c6ccc(N[C@H](CCN7CCC(O)CC7)CSc7ccccc7)c([N+](=O)[O-])c6)cc5)CC4)C3)CC2)C(C)(C)C)cc1 (stereo partly drawn) [Compound 46, (2S,4R)-1-((2S)-2-(8-(4-((4′-chloro-6-((4-(4-(((4-(((R)-4-(4-hydroxypiperidin-1-yl)-1-(phenylthio)butan-2-yl)amino)-3-nitrophenyl)sulfonyl)carbamoyl)phenyl)piperazin-1-yl)methyl)-4-methyl-2,3,4,5-tetrahydro-[1,1′-biphenyl]-4-yl)methyl)piperazin-1-yl)-8-oxooctanamido)-3,3-dimethylbutanoyl)-4-hydroxy-N—((S)-1-(4-(4-methylthiazol-5-yl)phenyl)ethyl)pyrrolidine-2-carboxamide]",20 to 100,< 20,55.9,5.8

# Continued, values first:
IC50 (MOLT-4; [1]) [nM],IC50 (RS4; 11; [2]) [nM],IC50 (MOLT-4; [3]) [nM],IC50 (RS4; 11; [4]) [nM],Structure (SMILES)
< 20,< 20,,,Cc1ncsc1-c1ccc([C@H](C)NC(=O)[C@@H]2C[C@@H](O)CN2C(=O)[C@@H](NC(=O)CCCCC(=O)N2CCC(C3CCN(CC4(C)CCC(c5ccc(Cl)cc5)=C(CN5CCN(c6ccc(C(=O)NS(=O)(=O)c7ccc(N[C@H](CCN8C[C@H]9C[C@@H]8CO9)CSc8ccccc8)c([N+](=O)[O-])c7)cc6)CC5)C4)CC3)CC2)C(C)(C)C)cc1 (some centres unmarked) [Compound 54]
20 to 100,< 20,,,"Cc1ncsc1-c1ccc([C@H](C)NC(=O)[C@@H]2C[C@@H](O)CN2C(=O)[C@@H](NC(=O)CCCCCCC(=O)N2CCN(C[C@]3(C)CCC(c4ccc(Cl)cc4)=C(CN4CCN(c5ccc(C(=O)NS(=O)(=O)c6ccc(N[C@H](CCN(C)CCO)CSc7ccccc7)c([N+](=O)[O-])c6)cc5)CC4)C3)CC2)C(C)(C)C)cc1 [Compound 42, (2S,4R)-1-((S)-2-(8-(4-(((R)-4′-chloro-6-((4-(4-(((4-(((R)-4-((2-hydroxyethyl)(methyl)amino)-1-(phenylthio)butan-2-yl)amino)-3-nitrophenyl)sulfonyl)carbamoyl)phenyl)piperazin-1-yl)methyl)-4-methyl-2,3,4,5-tetrahydro-[1,1′-biphenyl]-4-yl)methyl)piperazin-1-yl)-8-oxooctanamido)-3,3-dimethylbutanoyl)-4-hydroxy-N—((S)-1-(4-(4-methylthiazol-5-yl)phenyl)ethyl)pyrrolidine-2-carboxamide]"
< 20,20 to 100,12.7,42.8,"Cc1ncsc1-c1ccc([C@H](C)NC(=O)[C@@H]2C[C@@H](O)CN2C(=O)[C@@H](NC(=O)CN2CCC(CN3CCN(CC4(C)CCC(c5ccc(Cl)cc5)=C(CN5CCN(c6ccc(C(=O)NS(=O)(=O)c7ccc(N[C@H](CCN8CCOCC8)CSc8ccccc8)c(S(=O)(=O)C(F)(F)F)c7)cc6)CC5)C4)CC3)CC2)C(C)(C)C)cc1 (stereo partly drawn) [Compound 16, (2S,4R)-1-((2S)-2-(2-(4-((4-((4′-chloro-4-methyl-6-((4-(4-(((4-(((R)-4-morpholino-1-(phenylthio)butan-2-yl)amino)-3-((trifluoromethyl)sulfonyl)phenyl)sulfonyl)carbamoyl)phenyl)piperazin-1-yl)methyl)-2,3,4,5-tetrahydro-[1,1′-biphenyl]-4-yl)methyl)piperazin-1-yl)methyl)piperidin-1-yl)acetamido)-3,3-dimethylbutanoyl)-4-hydroxy-N—((S)-1-(4-(4-methylthiazol-5-yl)phenyl)ethyl)pyrrolidine-2-carboxamide]"
< 20,< 20,,,Cc1ncsc1-c1ccc([C@H](C)NC(=O)[C@@H]2C[C@@H](O)CN2C(=O)[C@@H](NC(=O)CN2CCC(CC(=O)N3CCN(C[C@]4(C)CCC(c5ccc(Cl)cc5)=C(CN5CCN(c6ccc(C(=O)NS(=O)(=O)c7ccc(N[C@H](CCN8CCCOCC8)CSc8ccccc8)c(S(=O)(=O)C(F)(F)F)c7)cc6)CC5)C4)CC3)CC2)C(C)(C)C)cc1 [Compound 76]
500 to 10000,20 to 100,,,Cc1ncsc1-c1ccc([C@H](C)NC(=O)[C@@H]2C[C@@H](O)CN2C(=O)[C@@H](NC(=O)CCCCCCC(=O)N2CCN(C[C@]3(C)CCC(c4ccc(Cl)cc4)=C(CN4CCN(c5ccc(C(=O)NS(=O)(=O)c6ccc(N[C@H](CCN7CCOCC78CC8)CSc7ccccc7)c(S(=O)(=O)C(F)(F)F)c6)cc5)CC4)C3)CC2)C(C)(C)C)cc1 [Compound 92]
